Measurements as given in article PMC7730438, “Generation of KS-58 as the first K-Ras(G12D)-inhibitory peptide presenting anti-cancer activity in vivo” (Scientific Reports, 2020).
Starred links: 1 amine or outer side, 2 acyl side, 3 side chain; linkers in the order of their positions; H or OH if unused. Positions of bridges follow the written chain, without caps; N, C: chain ends. Non-standard residues stand in square brackets, D forms with d. Residues, ends and D or L forms follow the SMILES beside them. Phe(4-F) = N[C@@H](Cc1ccc(F)cc1)C(=O)O; X1 = CCCCCCC[C@H](N[*:1])C(=O)[*:2]; Nle = CCCC[C@H](N)C(=O)O; X2 = C(C[*:1])C[*:2]; βAla = NCCC(=O)O

Assays:
[1] = Stability of peptide in rat plasma (RP-HPLC); assay type: in vitro ADME
Description: The stability of KS-58 in rat plasma was also evaluated. The peptides were incubated with rat plasma at 37 °C for different time periods (0 and 24 h), and the remaining amount of peptide was then determined using RP-HPLC. By comparing the peak area of the peptide, the remaining amount of peptide after plasma incubation was roughly estimated.
Each peptide (10 mM, 1 μL) was incubated with rat plasma (20 μL) prepared in house. […] The mixture was stored for 10 min at 4 °C and centrifuged at 15,000 rpm for 10 min at 4 °C. The supernatant was recovered and was directly supplied to RP-HPLC to determine the remaining amount of unmodified peptides in the sample.

[2] = system: PANC-1 orthotopic xenografts; test: Anti-cancer efficacy in PANC-1 orthotopic xenografts; assay type: in vivo, mice; conditions: 40 mg/kg iv once every 2 days for 4 weeks
Description: To establish orthotropic xenograft tumor models, 2.5 × 10^6 cells/50 µL of PANC-1 cells were injected into the pancreas of BALB/cAJcl-nu/nu male mice (8 weeks old; CLEA Japan, Inc.). KS-58 was dissolved in DMSO and then tenfold diluted by saline. The peptide solution was then injected intravenously to the mice bearing tumors once every 2 days for 4 weeks (40 mg/kg, n = 7). Organ weights of the pancreas, liver, and kidney were measured.

[3] = Pharmacokinetics study in mice, intravenous injection; assay type: in vivo
Description: Prior to the in vivo anti-cancer activity evaluation, a preliminary pharmacokinetics (PK) study was completed using a 20 mg/kg intravenous injection. Plasma was collected at 15 min, 1 h, 4 h, and 24 h after injection. […] KS-58 was detected in plasma 15 min and 1 h after intravenous injection, but it was not detected at 4 h and 24 h, due to the limited detection ability of RP-HPLC. The concentration change indicated a two-compartment model (Fig. 5A).
Animal experiments were carried out at UNITECH Co. Ltd. (Chiba, Japan) in accordance with the guidelines of the Animal Care and Use Committee of UNITECH (approval No. AGR IMF-190807A-30). KS-58 was dissolved in DMSO and then tenfold diluted by saline. The peptide solution was injected intravenously to Slc:ICR male mice (8 weeks old; Japan SLC, Inc.) (20 mg/kg, n = 3). Blood samples were collected from the mice at 15 min, 1 h, 4 h, and 24 h after injection. The blood was chilled on ice and then centrifuged at 12,000 rpm for 3 min at 4 °C. Plasma protein was precipitated by acetonitrile, and the supernatant was recovered. The remaining peptides in prepared samples were analyzed by RP-HPLC as described above.

[4] = target: T1, K-Ras(G12D)^GDP–SOS1 interaction (Homo sapiens, UniProt P01116, G12D); test: Intracellular PPI inhibition assay using NanoBiT in HEK293T cells; assay type: cell-based; conditions: peptide 30 µM, n = 4
T1 construct: host or cells: HEK293T
Description: (§1) Intracellular protein–protein interaction (PPI) inhibition assays were carried out using the NanoBiT system (Promega). Three kinds of plasmids with CMV promoters, which encodes human K-Ras(G12D) fusing SmBiT to the N-terminus, encodes human SOS1 fusing LgBiT to the C-terminus, and encodes human BRAF fusing LgBiT to the C-terminus, were prepared by Promega. Each combination of plasmids was transfected to HEK293T cells by FuGENE HD Reagent (E2312, […]). After 30 h incubation at 37 °C under 5% CO2, the cells were recovered, and seeded to 96-well tissue culture white plate with 10% FBS containing DMEM, and incubated overnight. Peptides were added to the plate and incubated for another 2 h. Nano-Glo (Promega, N2011) was directly added to the plate, and luminescence was immediately monitored. Intracellular K-Ras(G12D)^GDP–SOS1 and K-Ras(G12D)^GTP–BRAF interactions (%) were calculated based on no peptide treatment as 100% and only transfection of plasmid encoding LgBiT fusion protein as 0%.

[5] = target: T2, K-Ras(G12D)^GTP–BRAF interaction (Homo sapiens, UniProt P01116, G12D); test: as above; assay type: cell-based; conditions: peptide 30 µM, n = 4
T2 construct: host or cells: HEK293T
Description: as §1

MIA PaCa-2 cells = test: Cell proliferation assay (CellTiter-Glo, 72 h); assay type: cell-based, human; conditions: MIA PaCa-2 (G12C), peptide 30 µM, n = 4, ± SEM
Description: A427 (ATCC HTB-53), A549 (ATCC CCL-185), H1975 (ATCC CRL-5908), PANC-1 (ATCC CRL-1469), MIA PaCa-2 (ATCC CRL-1420), and Capan-1 (ATCC HTB-79) cells were purchased from ATCC, and each cell was cultured in medium supplemented with 10% fetal bovine serum (FBS), according to the protocol recommended by the manufacture.
The effect of peptides on cell proliferation of A427, A549, H1975, PANC-1, MIA PaCa-2, and Capan-1 cells was determined by 72 h exposure to peptides. Cells were seeded at 1000 cells/well in 96-well tissue culture plates in each growth media and allowed to adhere overnight on day 0. Peptides were solved in DMSO and then diluted with each growth media for a constant final DMSO concentration of 0.5%. Media in the wells were removed and replaced with diluted peptide solutions, and cells were incubated for 3 days. During the incubation, medium containing the peptides was replaced every day. Relative cell numbers were estimated using CellTiter-Glo assay kit (G7570, Promega, WI, USA) according to the manufacturer’s instructions. Luminescence was detected using SpectraMax i3x (MOLECULAR DEVICES, CA, USA). Cell proliferation rate (%) was calculated based on cell numbers at day 0 as 0% and at day 3 without peptide treatment as 100%.

[6] = system: PANC-1 subcutaneous xenografts; test: Anti-cancer efficacy in PANC-1 subcutaneous xenografts; assay type: in vivo, mice; conditions: 40 mg/kg iv once every 2 days for 4 weeks
Description: Animal experiments were carried out at UNITECH Co. Ltd. in accordance with the guidelines of the Animal Care and Use Committee of UNITECH (approval No. AGR IMF-190807A-31, -33, AGR IMF-20615A-30). To establish subcutaneous xenograft tumor models, 1 × 10^7 cells/150 µL of PANC-1 cells were subcutaneously injected into the flank of Crlj:SHO-Prkdc^scidHr^hr female mice (7 weeks old; Charles River Laboratories). KS-58 was dissolved in DMSO and then tenfold diluted by saline. The peptide solution was injected intravenously to the mice bearing tumors once every 2 days for 4 weeks (40 mg/kg, n = 10). The tumor growth rate was recorded every 3 days by measuring the major and minor axes of the tumors formed with a digital caliper. Measurements were transformed into tumor volume using the formula: tumor volume (mm^3) = major axis × minor axis^2 × 0.5.

[7] = rat plasma, incubation time 0 h

Peak area value ([1]; Input (NT, no-serum treatment)): 491,842
recovery ([1]; input control without serum treatment, Input (NT, no-serum treatment), read-out: Recovery rate (%)): 100%
Stability in rat plasma (in words) ([1]; rat plasma, 37 °C, 24 h): remained intact for up to at least 24 h
Peak area value ([1]; rat plasma, 37 °C, incubation time 24 h): 467,142
recovery at 24 h, 0.476 mM ([1]; rat plasma, 37 °C, incubation time 24 h, read-out: Recovery rate (%)): 95%
remaining at 24 h, 0.476 mM ([1]; rat plasma, 37 °C, incubation time 24 h, read-out: Residual rate (%)): 98.6%
Peak area value [1, 7]: 473,575
Residual rate (%) [1, 7]: 100%
recovery at 0 h, 0.476 mM ([1]; rat plasma, incubation time 0 h, read-out: Recovery rate (%)): 96.3%
Detection in plasma by RP-HPLC ([3]; 20 mg/kg iv, 15 min and 1 h after injection): detected
Detection in plasma by RP-HPLC ([3]; 20 mg/kg iv, 4 h and 24 h after injection): not detected
peptide concentration in the blood ([3]; 20 mg/kg iv, for at least 1 h after the injection): more than 30 μM
half-life ([3]; male, Slc:ICR, mouse, plasma, 20 mg/kg intravenous injection, n = 3, read-out: blood circulation half-life (t1/2) in the elimination phase): 1 ± 0.0317 h
Intracellular K-Ras(G12D)^GDP–SOS1 interaction (luminescence, %) [4]: 35.5%
Intracellular K-Ras(G12D)^GTP–BRAF interaction (luminescence, %) [5]: 53.8%
Compound: CCCCCCC[C@@H]1NC(=O)[C@@H]2CSCCCSC[C@@H](NC(=O)[C@H](Cc3c[nH]c4ccccc34)NC(=O)[C@@H]3CCCN3C(=O)[C@H](CC(=O)O)NC(=O)[C@H](Cc3ccc(F)cc3)NC(=O)[C@H](CO)NC1=O)C(=O)NCCC(=O)N1CCC[C@H]1C(=O)N[C@@H](CCCC)C(=O)N2 [KS-58, c[βAla-Pro-Nle-c(Cys-Anon-Ser-4fF-Asp-Pro-Trp-^DCys)]] (cyclo([βAla]P[Nle]C[X1]S[Phe(4-F)]DPW[dC]); linker 4-11 via X2)
Adverse side effects (loss of body weight, organ swelling of liver and kidney) ([2]; both xenografts): without any adverse side effects
cell growth of PANC-1 (pancreas weight; Sham = 0%, vehicle = 100%) ([2]; orthotopic xenograft): 65%
Cell proliferation (%) (MIA PaCa-2 cells): 86.8 ± 2.3%
Tumor growth (tumor volume) in subcutaneous xenografts [6]: significant tumor growth suppression
